Values of other authors in patent publication US20130178535A1, “Acetaminophen Composition” (B. Braun Melsungen AG, priority 2010, published 2013).

For `CC(=O)Nc1ccc(O)cc1` [paracetamol, N-(4-hydroxyphenyl)ethanamide], the “pH at which breakdown (hydrolysis) in aqueous solution is minimal” value is given as about 6.
